Experiments:
Test in all cases: relative viability (nuclei count vs DMSO), 5 days (fraction); higher = more cells survive
KN-93 = compound: CN(C/C=C/C1=CC=C(C=C1)Cl)CC2=CC=CC=C2N(CCO)S(=O)(=O)C3=CC=C(C=C3)OC [KN-93]
Outline: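 On vehicle-anchored 1536-well plates, lung cancer cell lines held overnight at 37 °C were pinned with five library-drug doses (not always all listed) spaced by √10. With no medium change over 5 days, they were then fixed, permeabilised and Hoechst-stained in one step and imaged at 4×. MetaXpress counted nuclei, and viability is the median across plates of treated-well over vehicle-well nuclei. Acceptance needed control CV below 25% and at least one doubling.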

KN-93 + Navitoclax = compound: CN(C/C=C/C1=CC=C(C=C1)Cl)CC2=CC=CC=C2N(CCO)S(=O)(=O)C3=CC=C(C=C3)OC [KN-93] + CC1(C)CCC(c2ccc(Cl)cc2)=C(CN2CCN(c3ccc(C(=O)NS(=O)(=O)c4ccc(N[C@H](CCN5CCOCC5)CSc5ccccc5)c(S(=O)(=O)C(F)(F)F)c4)cc3)CC2)C1 [Navitoclax] (partner 0.5 µM)
Outline: (§1)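 Relative viability was taken as the ratio of nuclei in treated wells to nuclei in vehicle wells. Lung cancer cell lines in 1536-well plates received compounds by pin tool one day after seeding, either one drug alone or a fixed anchor-drug dose plus five library-drug doses (not always all listed) in √10 steps. Nuclei were counted on 4× images after 5 days of treatment, and values are medians of duplicate plates.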

KN-93 + OSI-027 = compound: CN(C/C=C/C1=CC=C(C=C1)Cl)CC2=CC=CC=C2N(CCO)S(=O)(=O)C3=CC=C(C=C3)OC [KN-93] + COc1cccc2cc(-c3nc([C@H]4CC[C@H](C(=O)O)CC4)n4ncnc(N)c34)[nH]c12 [OSI-027] (partner 0.5 µM)
Outline: as §1

KN-93 + Pictilisib = compound: CN(C/C=C/C1=CC=C(C=C1)Cl)CC2=CC=CC=C2N(CCO)S(=O)(=O)C3=CC=C(C=C3)OC [KN-93] + CS(=O)(=O)N1CCN(Cc2cc3nc(-c4cccc5[nH]ncc45)nc(N4CCOCC4)c3s2)CC1 [Pictilisib] (partner 1 µM)
Outline: as §1

KN-93 + Decitabine = compound: CN(C/C=C/C1=CC=C(C=C1)Cl)CC2=CC=CC=C2N(CCO)S(=O)(=O)C3=CC=C(C=C3)OC [KN-93] + Nc1ncn([C@H]2C[C@H](O)[C@@H](CO)O2)c(=O)n1 [Decitabine] (partner 2 µM)
Outline: as §1

Cell Line	relative viability (KN-93; 0.08 µM)	relative viability (KN-93; 0.253 µM)	relative viability (KN-93; 2.53 µM)	relative viability (KN-93; 8 µM)	relative viability (KN-93 + Navitoclax; first compound 0.08 µM)	relative viability (KN-93 + Navitoclax; first compound 0.253 µM)	relative viability (KN-93 + Navitoclax; first compound 2.53 µM)	relative viability (KN-93 + Navitoclax; first compound 8 µM)	relative viability (KN-93 + OSI-027; first compound 0.08 µM)	relative viability (KN-93 + OSI-027; first compound 0.253 µM)	relative viability (KN-93 + OSI-027; first compound 2.53 µM)	relative viability (KN-93 + OSI-027; first compound 8 µM)	relative viability (KN-93 + Pictilisib; first compound 0.08 µM)	relative viability (KN-93 + Pictilisib; first compound 0.253 µM)	relative viability (KN-93 + Pictilisib; first compound 2.53 µM)	relative viability (KN-93 + Pictilisib; first compound 8 µM)	relative viability (KN-93 + Decitabine; first compound 0.08 µM)	relative viability (KN-93 + Decitabine; first compound 0.253 µM)	relative viability (KN-93 + Decitabine; first compound 2.53 µM)	relative viability (KN-93 + Decitabine; first compound 8 µM)
NCI-H1666	0.969	0.921	0.995	0.875	0.863	0.799	0.982	0.863	0.882	0.834	0.993	0.857	0.56	0.388	0.489	0.527	0.705	0.716	0.783	0.748
NCI-H1734	0.942	1.15	1.14	0.668	0.649	0.964	0.816	0.622	0.53	0.574	0.605	0.404	0.534	0.548	0.492	0.29	0.465	0.596	0.502	0.442
NCI-H1755	0.915	1.03	1.03	0.758	0.844	1.03	1.07	0.815	0.832	0.727	0.776	0.559	0.413	0.429	0.475	0.205	0.752	0.723	0.696	0.703
NCI-H1792	0.783	0.83	0.948	0.703		0.705	0.75	0.492	0.527	0.651	0.768	0.664		0.233	0.253	0.223	0.278	0.489	0.602	0.535
NCI-H1793	0.742	0.984	1.11	0.264		0.398	0.385	0.244	0.242	0.245	0.261	0.152		0.334	0.382	0.267	0.595	0.494	0.465	0.43
NCI-H1915	0.952	1.24	0.993	0.947	0.736	0.813	0.823	0.742	0.571	0.718	0.653	0.472	0.967	0.865	0.928	0.806	0.274	0.261	0.26	0.246
NCI-H1944	0.885	0.885	0.942	0.803	1.09	1.01	1.04	0.896	0.403	0.376	0.383	0.31	0.372	0.292	0.332	0.34	0.45	0.414	0.413	0.395
NCI-H1975	0.886	0.942	0.945	0.706	0.797	1.36	1.26	0.756	0.674	0.731	0.677	0.417	0.281	0.267	0.28	0.25	0.389	0.361	0.412	0.272
NCI-H1993	0.973	0.921	1.04	0.772	0.939	0.71	0.861	0.632	0.544	0.607	0.565	0.573	0.689	1.07	0.761	0.754	0.573	0.548	0.579	0.601
NCI-H2009	1.01	1.05	0.922	0.603	1.16	1.21	1.23	0.869	0.608	0.629	0.535	0.248	0.841	1.01	0.761	0.345	0.421	0.393	0.399	0.317
NCI-H2023	0.906	1.01	1.08	0.534	1	1.22	1.05	0.789	0.361	0.359	0.345	0.211	0.3	0.212	0.22	0.167	0.189	0.239	0.219	0.201
NCI-H2085	0.951	1.01	1.05	0.81	1.04	1.21	1.23	0.867	0.733	0.639	0.806	0.597	0.438	0.452	0.518	0.414	0.581	0.502	0.516	0.496

From the supplement of paper PMC10307832
